In assay [1] the target is Mitogen-activated protein kinase kinase kinase 11 (Homo sapiens) (UniProt Q16584). Kind of assay: Inhibition of MLK3 in human NCI-H929 cells at 10 uM by mass spectroscopic analysis relative to control. Format: cell-based.
The target of assay [2] is Ribosomal protein S6 kinase alpha-4 (Homo sapiens) (UniProt O75676). Kind of assay: Inhibition of MSK2 domain 1 in human NCI-H929 cells at 10 uM by mass spectroscopic analysis relative to control. Format: cell-based.
The target in assay [3] is T1, Serine/threonine-protein kinase 3 (Homo sapiens) (UniProt Q13188).
T1 sequence (whole entry): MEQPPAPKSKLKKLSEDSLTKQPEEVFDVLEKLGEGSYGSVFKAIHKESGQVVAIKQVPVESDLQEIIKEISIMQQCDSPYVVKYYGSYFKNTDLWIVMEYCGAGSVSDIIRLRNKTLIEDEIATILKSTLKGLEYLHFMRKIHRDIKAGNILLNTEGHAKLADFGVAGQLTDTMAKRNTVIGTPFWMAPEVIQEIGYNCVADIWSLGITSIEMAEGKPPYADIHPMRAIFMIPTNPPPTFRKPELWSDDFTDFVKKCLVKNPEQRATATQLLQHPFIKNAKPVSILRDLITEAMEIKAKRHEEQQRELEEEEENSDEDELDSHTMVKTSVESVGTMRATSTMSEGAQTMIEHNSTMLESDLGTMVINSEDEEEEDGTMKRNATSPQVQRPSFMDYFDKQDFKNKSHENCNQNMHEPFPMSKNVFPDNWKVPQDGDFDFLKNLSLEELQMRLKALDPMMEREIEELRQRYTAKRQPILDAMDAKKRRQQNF
Put plainly: Inhibition of MST2 in human NCI-H929 cells at 10 uM by mass spectroscopic analysis relative to control. Type of assay: cell-based.

The test system of the next assay is MM1.S. Put plainly: Upregulation of YAP1 protein level in human MM1.S cells at 3 to 10 uM measured after 72 hrs by Western blot analysis. Type of assay: functional, cell-based. The following applies: dose 3-10 µM. Background: A western blot detects proteins with antibodies after separation by electrophoresis.

The text below walks through data of ChEMBL document CHEMBL4804281, “STK4 inhibitors for treatment of hematologic malignancies” (2020).

The source made the active and inactive calls. The rule behind the calls is not given here.

Sequence of Mitogen-activated protein kinase kinase kinase 11 (Homo sapiens) (Q16584 whole entry, looked up, the tested form may be a part): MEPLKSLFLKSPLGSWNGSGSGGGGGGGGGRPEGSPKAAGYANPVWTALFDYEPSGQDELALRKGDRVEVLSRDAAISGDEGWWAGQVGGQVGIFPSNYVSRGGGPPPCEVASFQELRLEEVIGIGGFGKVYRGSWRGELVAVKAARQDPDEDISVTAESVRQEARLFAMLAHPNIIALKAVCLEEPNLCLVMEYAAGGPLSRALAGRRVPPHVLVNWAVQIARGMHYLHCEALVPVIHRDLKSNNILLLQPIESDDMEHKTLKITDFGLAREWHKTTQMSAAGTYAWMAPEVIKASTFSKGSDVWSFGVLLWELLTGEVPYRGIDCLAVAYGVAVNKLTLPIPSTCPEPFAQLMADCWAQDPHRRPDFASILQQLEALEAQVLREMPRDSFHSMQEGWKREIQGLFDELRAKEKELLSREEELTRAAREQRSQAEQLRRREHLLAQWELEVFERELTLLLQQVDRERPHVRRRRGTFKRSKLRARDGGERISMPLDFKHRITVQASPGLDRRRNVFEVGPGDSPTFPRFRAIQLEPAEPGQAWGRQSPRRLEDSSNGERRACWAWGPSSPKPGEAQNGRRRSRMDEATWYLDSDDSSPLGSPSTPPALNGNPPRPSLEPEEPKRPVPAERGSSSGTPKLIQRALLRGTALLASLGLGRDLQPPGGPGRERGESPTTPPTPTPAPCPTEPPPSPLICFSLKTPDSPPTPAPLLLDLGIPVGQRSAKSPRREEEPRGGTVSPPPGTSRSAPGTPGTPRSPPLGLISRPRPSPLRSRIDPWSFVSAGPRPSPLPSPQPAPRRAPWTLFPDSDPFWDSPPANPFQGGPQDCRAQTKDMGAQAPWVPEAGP
Sequence of Ribosomal protein S6 kinase alpha-4 (Homo sapiens) (O75676 whole entry, looked up, the tested form may be a part): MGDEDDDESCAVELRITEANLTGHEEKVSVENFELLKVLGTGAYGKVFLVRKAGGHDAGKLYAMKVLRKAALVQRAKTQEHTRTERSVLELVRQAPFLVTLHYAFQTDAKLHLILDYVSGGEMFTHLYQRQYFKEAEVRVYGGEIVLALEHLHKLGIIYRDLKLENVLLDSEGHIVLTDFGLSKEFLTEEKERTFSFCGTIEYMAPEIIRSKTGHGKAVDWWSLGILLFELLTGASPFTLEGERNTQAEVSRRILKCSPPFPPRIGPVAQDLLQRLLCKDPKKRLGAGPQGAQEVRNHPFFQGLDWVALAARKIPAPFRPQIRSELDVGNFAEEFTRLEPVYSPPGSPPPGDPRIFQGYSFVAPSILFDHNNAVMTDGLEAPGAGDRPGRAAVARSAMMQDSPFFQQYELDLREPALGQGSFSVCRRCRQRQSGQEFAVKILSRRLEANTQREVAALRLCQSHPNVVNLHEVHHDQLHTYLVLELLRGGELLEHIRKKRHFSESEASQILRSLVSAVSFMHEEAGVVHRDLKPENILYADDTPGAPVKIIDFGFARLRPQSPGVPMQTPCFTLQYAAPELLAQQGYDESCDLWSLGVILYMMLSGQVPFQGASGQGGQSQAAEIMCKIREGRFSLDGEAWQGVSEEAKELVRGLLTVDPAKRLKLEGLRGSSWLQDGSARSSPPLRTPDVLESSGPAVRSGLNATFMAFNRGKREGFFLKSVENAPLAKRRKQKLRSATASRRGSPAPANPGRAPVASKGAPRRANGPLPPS

Regarding `COc1cc(NS(=O)(=O)C2CC2)ccc1-c1cnc(N)c(-c2ccc3c(c2)CCNC3=O)c1`, the inhibition (in general, how much of the control response was suppressed) is 0% in assay [1], over 90% in assay [2] and 0% in assay [3].

For `Nc1ncc(-c2cccc([N+](=O)[O-])c2F)cc1-c1ccc2c(c1)CCNC2=O`, the result in the assay with MM1.S was inactive.
